The results in this text go back to paper PMC11537054, “A conserved two-component system senses intracellular iron levels and regulates redox balance in Mycobacterium spp” (Microbiology Spectrum, 2024).

The experiment concerns the target PdtaS (PdtaS-eGFP) (Mycobacterium tuberculosis, UniProt P9WGL5). Briefly: biochemical.

Each structure is given as a SMILES string. pKd: −log10 of the molar value.

Chain of PdtaS (PdtaS-eGFP) (P9WGL5 whole entry): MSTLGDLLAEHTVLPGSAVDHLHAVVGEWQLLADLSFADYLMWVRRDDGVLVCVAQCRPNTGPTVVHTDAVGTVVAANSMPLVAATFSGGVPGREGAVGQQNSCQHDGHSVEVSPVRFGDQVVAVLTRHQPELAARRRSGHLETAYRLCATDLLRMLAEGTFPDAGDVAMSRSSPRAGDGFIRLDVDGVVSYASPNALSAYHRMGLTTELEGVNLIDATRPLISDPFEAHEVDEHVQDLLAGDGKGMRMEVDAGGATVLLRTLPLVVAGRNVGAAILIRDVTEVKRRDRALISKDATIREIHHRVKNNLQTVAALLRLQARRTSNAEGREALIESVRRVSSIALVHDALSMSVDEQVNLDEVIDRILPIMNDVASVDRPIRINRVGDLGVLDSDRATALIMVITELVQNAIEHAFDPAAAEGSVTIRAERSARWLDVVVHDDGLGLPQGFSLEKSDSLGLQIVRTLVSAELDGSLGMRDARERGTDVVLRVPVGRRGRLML

In general, pKd refers to −log10 of the Kd, conventionally taken in molar units. Low readings indicate a large Kd, high ones a small Kd. For `C=CC1=C(C)C2=Cc3c(C=C)c(C)c4[n]3[Fe]([Cl])[n]3c(c(C)c(CCC(=O)O)c3=CC3=NC(=C4)C(C)=C3CCC(=O)O)=CC1=N2` [hemin], the pKd is about 7.76.
